This note sets out measurements from US12643867B2, “Compositions and uses thereof” (University of Virginia Patent Foundation, priority 2017, dated 2026).

The test system of test [1] is AAPK1/AAPK2 (5′-AMP-activated protein kinase catalytic subunit alpha-1). In words: SILAC LC-MS ATP acyl phosphate probe competition, native kinases in HEK293T. Format: binding, Homo sapiens (Human). To be noted: site Lys2; ATP 1 mM; Ketanserin, Ritanserin 100 μM; RF001 1 mM. Here is the method: (§1) Proteomes were diluted to 2 mg/ml in kinase buffer. The light and heavy proteomes (0.5 mg, 250 μL total reaction volume) were pre-treated with vehicle or compound, respectively (5 μL, DMSO (light) or 50× stock in DMSO (heavy)), mixed gently, and incubated at 25° C. for 30 min. […] After incubation, matched light and heavy proteomes were transferred and mixed in a 1:1 ratio in a two-dram vial containing 4:1:3 MeOH/CHCl3/H2O (2 mL MeOH, 500 AL CHCl3, 1.5 mL H2O) for extraction of proteins to remove excess probe, quickly vortexed, and centrifuged at 1,400×g for 3 min to pellet protein. Organic and aqueous layers were removed using a Pasteur pipette, and the protein pellet was transferred to a screw-top tube in 600 μL MeOH. A second extraction was performed by adding CHCl3 (150 μL) and H2O (600 μL) to each sample, vortexed, and centrifuged at 1,400×g for 3 min to pellet protein. Organic and aqueous layers were removed by pipetting. MeOH added to pellet (600 μL) and pellets were re-suspended by sonication (3×1 sec pulse, 20% amplitude) for a final extraction. Samples were then centrifuged at 17,000×g for 5 min to pellet protein and MeOH was removed by pipetting. The pellets were re-suspended in 10 M urea/25 mM ammonium bicarbonate ([…]), brought to a final volume of 1 mL with 25 mM ammonium bicarbonate, reduced with 10 mM DTT for 15 min at 65° C. allowed to cool, and then alkylated with 40 mM iodoacetamide for 30 min at 25° C. in the dark. To desalt the samples, each was transferred to a two-dram glass vial, and to the vial 4:1:2 MeOH/CHCl3/H2O (2 mL MeOH, 500 AL CHCl3, 1 mL H2O) was added. The vials were vortexed quickly, spun at 1.400×g for 3 min to pellet protein, and aqueous and organic layers were removed using a Pasteur pipette. The resulting protein pellet was transferred to a screw-top tube in 600 μL MeOH, and then CHCl3 (150 μL) and HO (600 μL) were added to extract protein a second time. The samples were vortexed quickly, centrifuged at 1,400×g to pellet protein, and the aqueous and organic layers were removed by pipetting. Resulting protein pellet was suspended in MeOH (600 μL) via sonication (3×1 sec pulse, 20% amplitude), centrifuged at 17,000×g for 5 min to pellet protein, and MeOH removed by pipetting. Protein pellets were then re-suspended in 25 mM ammonium bicarbonate (500 μL) and digested with 7.5 μg Trypsin/Lys-C(Promega, 15 μL, 0.5 μg/μL) for 3 h at 37° C. Avidin-agarose beads (Thermo Scientific Pierce, 100 AL aliquot per sample) were washed three times by adding 10 mL DPBS, centrifuged at 1,400×g for 1 min, and decanting. This wash step was repeated for a total of 3 times. Digested protein samples were mixed with washed avidin beads (100 μL) and brought to a volume of 5.5 mL with DPBS in a 15 mL conical and rotated for 1 h to enrich samples for the covalent desthiobiotin modification. The beads were washed with 25 mM ammonium bicarbonate (3× with 10 mL, centrifuge at 1,400×g for 3 min, decant) and then H2O (3× with 10 mL, centrifuge at 1,400×g for 3 min, decant). Washed beads were then transferred to a low-bind microfuge tube, centrifuged at 1,400×g for 3 min, allowed to rest for 1 min to settle beads, and then excess H2O was removed carefully using a gel-loading pipette tip. To elute peptides, 100 μL of elution buffer (50% acetonitrile, ACN; 0.1% formic acid) was added to each sample and incubated for 3 min. Beads were spun down at 1.400×g for 3 min, allowed to rest for 1 min to settle beads, and then 75 μL of peptide-containing supernatant was removed carefully using a gel-loading pipette tip and transferred to a new low bind centrifuge tube. This step was repeated two more times with 75 μL of elution buffer and all eluent were collected into the same centrifuge tube (˜225 μL total). Peptides were dried on a speed vacuum, resulting peptide samples acidified in 5% (v/v) formic acid, and stored at −80° C. until analysis.
(§2) The peptide samples were analyzed by liquid chromatography-mass spectrometry. […]

Test [2] concerns KS6A1/KS6A2/KS6A3 (Ribosomal protein S6 kinase alpha 1). The description is as above. The conditions noted are these: site Lys2; ATP 1 mM; Ketanserin, Ritanserin 100 μM; RF001 1 mM. Format: binding, Homo sapiens (Human). Here is the method:
as §1, §2

For test [3], the system named is KS6A4/KS6A5 (Ribosomal protein S6 kinase alpha 4). The test is described as above. The test is classed as binding, Homo sapiens (Human). The conditions noted are these: site ATP Loop; ATP 1 mM; Ketanserin, Ritanserin 100 μM; RF001 1 mM. The method, then: as §1, §2
In test [4] the test system is M4K4/MINK1/TNIK (Mitogen-activated protein kinase kinase kinase kinase 4). Described as above. The test is classed as binding, Homo sapiens (Human). The conditions noted are these: site Lys2; ATP 1 mM; Ketanserin, Ritanserin 100 μM; RF001 1 mM. Here is the method:
as §1, §2

The subject of test [5] is MARK3/MARK4 (MAP/microtubule affinity-regulating kinase 3). Described as above. Format: binding, Homo sapiens (Human). The conditions noted are these: site Lys1; ATP 1 mM; Ketanserin, Ritanserin 100 μM; RF001 1 mM. Here is the method: as §1, §2
The subject of test [6] is MP2K1/MP2K2 (Dual specificity mitogen-activated protein kinase kinase 1). The description is as above. The test is classed as binding, Homo sapiens (Human). To be noted: site Lys2; ATP 1 mM; Ketanserin, Ritanserin 100 μM; RF001 1 mM. Here is the method:
as §1, §2

For test [7], the system named is STK3/STK4 (Serine/threonine-protein kinase 3). The description is as above. The test is classed as binding, Homo sapiens (Human). The conditions noted are these: site Lys2; ATP 1 mM; Ketanserin, Ritanserin 100 μM; RF001 1 mM. The method, then:
as §1, §2

In test [8] the target is Zeta (DGK zeta) (Homo sapiens, UniProt Q13574). Description: DGK isoform % Activity screen. The test is classed as biochemical.
Zeta (DGK zeta), sequence (Q13574 whole entry, canonical isoform): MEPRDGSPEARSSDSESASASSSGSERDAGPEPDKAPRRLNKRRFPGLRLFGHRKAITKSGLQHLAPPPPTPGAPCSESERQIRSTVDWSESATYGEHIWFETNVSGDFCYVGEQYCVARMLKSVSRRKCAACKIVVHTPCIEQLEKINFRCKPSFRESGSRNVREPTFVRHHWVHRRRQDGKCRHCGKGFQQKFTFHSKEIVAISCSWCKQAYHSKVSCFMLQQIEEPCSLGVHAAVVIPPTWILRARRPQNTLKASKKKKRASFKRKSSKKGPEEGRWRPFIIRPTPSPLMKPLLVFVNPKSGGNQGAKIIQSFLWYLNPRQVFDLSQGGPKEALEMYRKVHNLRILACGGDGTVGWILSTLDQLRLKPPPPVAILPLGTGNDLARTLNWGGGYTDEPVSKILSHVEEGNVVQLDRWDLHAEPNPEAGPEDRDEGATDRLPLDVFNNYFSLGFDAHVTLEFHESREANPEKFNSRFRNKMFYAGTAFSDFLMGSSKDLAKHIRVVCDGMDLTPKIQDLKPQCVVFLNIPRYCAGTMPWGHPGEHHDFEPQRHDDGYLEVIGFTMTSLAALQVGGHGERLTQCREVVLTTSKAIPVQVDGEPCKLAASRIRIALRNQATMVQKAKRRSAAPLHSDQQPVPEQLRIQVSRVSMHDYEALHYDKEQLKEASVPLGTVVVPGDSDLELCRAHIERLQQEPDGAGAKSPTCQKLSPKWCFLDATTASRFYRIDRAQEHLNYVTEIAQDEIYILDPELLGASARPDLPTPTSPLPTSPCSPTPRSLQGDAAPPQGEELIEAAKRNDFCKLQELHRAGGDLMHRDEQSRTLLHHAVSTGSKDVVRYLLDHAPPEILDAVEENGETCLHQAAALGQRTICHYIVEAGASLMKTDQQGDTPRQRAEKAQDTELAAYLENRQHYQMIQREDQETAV
The subject of test [9] is recombinant DGKs and native kinases in HEK293T proteomes. In words: Quantitative chemical proteomics, summary over kinases. The test is classed as binding. To be noted: for number of kinase targets that show SR≥2: recombinant DGKs and native kinases. Here is the method: as §1, §2

Where only a bound is given, the exact number is not on record here.

`Cc1nc2sccn2c(=O)c1CCN1CCC(=C(c2ccc(F)cc2)c2ccc(F)cc2)CC1` [Ritanserin]: the “SILAC ratio, AAPK1/AAPK2 probe-modified peptide” value in test [1] was determined as 2.4. Also, the “SILAC ratio, KS6A1/KS6A2/KS6A3 probe-modified peptide” value in test [2] was found to be 2.0. In addition, the “SILAC ratio, KS6A4/KS6A5 probe-modified peptide” value in test [3] turned out to be 2.2. Also, the “SILAC ratio, M4K4/MINK1/TNIK probe-modified peptide” value in [4] is on record as 1.8. Also, the “SILAC ratio, MARK3/MARK4 probe-modified peptide” value in [5] amounted to 2.0. Besides, the “SILAC ratio, MP2K1/MP2K2 probe-modified peptide” value in [6] came out at 1.9. Besides, the “SILAC ratio, STK3/STK4 probe-modified peptide” value in test [7] was 1.6. Besides, in test [8], the activity at 100 µM was determined as 86%. The “SILAC ratio at all binding sites detected, other DGK isoforms” value in test [9] (100 μM) was < 2. In test [9], the “number of kinase targets that show SR≥2” value amounted to 25.
As to `Fc1ccc(C(=C2CCNCC2)c2ccc(F)cc2)cc1` [RF001, 4-(Bis(4-fluorophenyl)methylene) piperidine], in test [1], the “SILAC ratio, AAPK1/AAPK2 probe-modified peptide” value is on record as 1.1. Moreover, in test [2], the “SILAC ratio, KS6A1/KS6A2/KS6A3 probe-modified peptide” value came out at 1.2. Also, in test [3], the “SILAC ratio, KS6A4/KS6A5 probe-modified peptide” value was found to be 1.1. In addition, in test [4], the “SILAC ratio, M4K4/MINK1/TNIK probe-modified peptide” value was found to be 1.1. The “SILAC ratio, MARK3/MARK4 probe-modified peptide” value in test [5] is 1.1. Moreover, the “SILAC ratio, MP2K1/MP2K2 probe-modified peptide” value in test [6] came out at 0.9. For the same compound, the “SILAC ratio, STK3/STK4 probe-modified peptide” value in [7] is 0.9. The activity at 100 µM in test [8] stood at 80%. Moreover, in [8] (read-out: 1 mM % Activity, Zeta), the activity at 1000 µM amounted to 0%. In addition, the “average SILAC ratio at all detected probe-modified sites of other DGK subtypes” value in [9] (1 mM) was ~1. Further, in test [9] (all detectable kinases), the “kinase targets with potent activity (SR≥5)” value is “a single kinase target”. For the same compound, the “number of kinase targets that show SR≥2” value in test [9] amounted to 3.
For `O=C(c1ccc(F)cc1)C1CCN(CCn2c(=O)[nH]c3ccccc3c2=O)CC1` [Ketanserin], the “SILAC ratio, AAPK1/AAPK2 probe-modified peptide” value in test [1] is given as 1.4. The “SILAC ratio, KS6A1/KS6A2/KS6A3 probe-modified peptide” value in [2] was found to be 1.4. In addition, in [3], the “SILAC ratio, KS6A4/KS6A5 probe-modified peptide” value is 1.3. The “SILAC ratio, M4K4/MINK1/TNIK probe-modified peptide” value in [4] is given as 1.3. Further, the “SILAC ratio, MARK3/MARK4 probe-modified peptide” value in test [5] turned out to be 1.4. The “SILAC ratio, MP2K1/MP2K2 probe-modified peptide” value in test [6] was determined as 1.3. Besides, the “SILAC ratio, STK3/STK4 probe-modified peptide” value in [7] is 1.2. The compound further registered an activity at 100 µM in [8] of 90%. Further, in test [9] (100 μM), the “competition at probe-binding sites” value is given as “negligible competition at all probe-binding sites”.
